# Assay results reported in PMC3382171 (PLoS ONE, 2012).
# How the values were obtained:
# Assay in all cases: biochemical
# Design in all cases: University of Dundee kinase panel, percent inhibition of phosphorylation at 1 uM RAFi, ATP at Km
# Settings in all cases: read-out: Dundee KSS %inh at 1 uM
# [1] = molecular target: T1, AURB (Homo sapiens, UniProt Q96GD4)
# T1 construct: gene AURKB
# Protocol: (§1) The METi and RAFi were screened against kinase panels (SelectScreen, Invitrogen; University of Dundee, Division of Signal Transduction Therapy, UK; Upstate Biotechnology/Millipore, Billerica, MA). In these selectivity assays the concentration of ATP was set to the Km value of ATP for each kinase tested to allow for a relative potency comparison between the various kinases. The compounds were tested at 1 µM final concentration. […] Supplementary file pone.0039653.s002.pdf: Figure S2 Kinase Selectivity Screen of RAFi. (A) Kinase selectivity screen (KSS) performed at University of Dundee (Division of Signal Transduction Therapy). Values in % inhibition of phosphorylation given 1 µM of RAFi compared to control. (B) KSS performed at Invitrogen (Selectscreen Service) compared to control. Values in % inhibition of phosphorylation given 1 µM of RAFi. (C) Cell based dose response kinase inhibition of indicated kinases by RAFi. (PDF) Click here for additional data file.
# [2] = molecular target: T2, CKIIa (Homo sapiens, UniProt P68400)
# T2 construct: gene CSNK2A1
# Protocol: as §1
# [3] = molecular target: CSK (Homo sapiens, UniProt P41240)
# Protocol: as §1
# [4] = molecular target: DYRK3 (Homo sapiens, UniProt O43781)
# Protocol: as §1
# [5] = molecular target: T3, JNK1a (Homo sapiens, UniProt P45983)
# T3 construct: gene MAPK8; isoform alpha
# Protocol: as §1
# [6] = molecular target: T4, JNK2 (Homo sapiens, UniProt P45984)
# T4 construct: gene MAPK9
# Protocol: as §1
# [7] = molecular target: MARK3 (Homo sapiens, UniProt P27448)
# Protocol: as §1
# [8] = molecular target: T5, MNK2 (Homo sapiens, UniProt Q9HBH9)
# T5 construct: gene MKNK2
# Protocol: as §1
# [9] = molecular target: T6, MST2 (Homo sapiens, UniProt Q13188)
# T6 construct: gene STK3
# Protocol: as §1
# [10] = molecular target: NEK2 (Homo sapiens, UniProt P51955)
# Protocol: as §1
# [11] = molecular target: PIM3 (Homo sapiens, UniProt Q86V86)
# Protocol: as §1
# [12] = molecular target: T7, PKCa (Homo sapiens, UniProt P17252)
# T7 construct: gene PRKCA
# Protocol: as §1
# [13] = molecular target: T8, PLK1preactivated (Homo sapiens, UniProt P53350)
# T8 construct: gene PLK1
# Protocol: as §1
# [14] = molecular target: T9, RSK2 (Homo sapiens, UniProt P51812)
# T9 construct: gene RPS6KA3
# Protocol: as §1
# [15] = molecular target: T10, mouse ERK2 (Mus musculus, UniProt P63085)
# T10 construct: gene Mapk1
# Protocol: as §1
# [16] = molecular target: mouse LCK (Mus musculus, UniProt P06240)
# Protocol: as §1
# [17] = molecular target: T11, p38d (Homo sapiens, UniProt O15264)
# T11 construct: gene MAPK13
# Protocol: as §1
# [18] = molecular target: T12, p38g (Homo sapiens, UniProt P53778)
# T12 construct: gene MAPK12
# Protocol: as §1
# [19] = molecular target: T13, rabbit MEK1 (Oryctolagus cuniculus, UniProt P29678)
# T13 construct: gene MAP2K1
# Protocol: as §1
# [20] = molecular target: T14, rat MNB (Rattus norvegicus, UniProt Q63470)
# T14 construct: gene Dyrk1a
# Protocol: as §1
# T11 sequence (O15264 whole entry): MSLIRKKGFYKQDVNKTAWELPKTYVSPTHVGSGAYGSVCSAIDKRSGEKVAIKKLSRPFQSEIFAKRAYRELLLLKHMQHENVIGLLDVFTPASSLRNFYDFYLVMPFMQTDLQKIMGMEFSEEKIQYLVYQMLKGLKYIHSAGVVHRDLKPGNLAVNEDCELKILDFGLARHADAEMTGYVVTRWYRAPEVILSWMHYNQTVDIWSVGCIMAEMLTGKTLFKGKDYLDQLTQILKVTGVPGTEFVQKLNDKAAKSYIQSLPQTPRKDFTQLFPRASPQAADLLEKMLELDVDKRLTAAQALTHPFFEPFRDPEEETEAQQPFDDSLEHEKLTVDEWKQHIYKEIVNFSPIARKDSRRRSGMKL
# Sequence of DYRK3 (O43781 whole entry): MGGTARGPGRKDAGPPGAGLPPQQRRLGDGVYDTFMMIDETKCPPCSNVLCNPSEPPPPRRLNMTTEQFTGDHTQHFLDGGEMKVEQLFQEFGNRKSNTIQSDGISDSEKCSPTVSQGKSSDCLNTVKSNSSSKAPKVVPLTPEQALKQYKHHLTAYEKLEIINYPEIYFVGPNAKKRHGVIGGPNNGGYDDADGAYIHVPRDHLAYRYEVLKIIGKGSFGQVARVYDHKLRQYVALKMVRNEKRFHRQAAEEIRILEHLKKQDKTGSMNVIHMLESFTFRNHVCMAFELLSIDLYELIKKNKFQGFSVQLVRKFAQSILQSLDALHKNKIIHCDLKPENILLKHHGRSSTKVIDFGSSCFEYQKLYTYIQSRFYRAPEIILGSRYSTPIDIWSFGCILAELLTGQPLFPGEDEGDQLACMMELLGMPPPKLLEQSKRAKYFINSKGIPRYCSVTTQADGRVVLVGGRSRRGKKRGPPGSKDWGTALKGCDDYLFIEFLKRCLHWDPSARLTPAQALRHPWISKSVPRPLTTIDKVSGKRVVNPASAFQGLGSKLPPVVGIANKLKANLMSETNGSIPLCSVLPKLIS
# Sequence of NEK2 (P51955 whole entry): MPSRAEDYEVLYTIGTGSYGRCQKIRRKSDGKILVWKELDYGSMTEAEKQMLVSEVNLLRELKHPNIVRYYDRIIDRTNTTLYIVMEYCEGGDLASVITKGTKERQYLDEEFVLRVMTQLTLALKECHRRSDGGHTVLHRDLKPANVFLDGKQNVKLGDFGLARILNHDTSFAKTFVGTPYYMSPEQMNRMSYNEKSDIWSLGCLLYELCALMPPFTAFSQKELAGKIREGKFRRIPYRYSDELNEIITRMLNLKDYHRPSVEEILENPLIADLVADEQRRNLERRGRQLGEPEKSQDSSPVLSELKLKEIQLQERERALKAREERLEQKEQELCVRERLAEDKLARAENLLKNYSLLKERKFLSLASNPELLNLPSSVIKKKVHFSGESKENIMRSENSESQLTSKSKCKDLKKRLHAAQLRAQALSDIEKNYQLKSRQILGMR
# Sequence of CSK (P41240 whole entry): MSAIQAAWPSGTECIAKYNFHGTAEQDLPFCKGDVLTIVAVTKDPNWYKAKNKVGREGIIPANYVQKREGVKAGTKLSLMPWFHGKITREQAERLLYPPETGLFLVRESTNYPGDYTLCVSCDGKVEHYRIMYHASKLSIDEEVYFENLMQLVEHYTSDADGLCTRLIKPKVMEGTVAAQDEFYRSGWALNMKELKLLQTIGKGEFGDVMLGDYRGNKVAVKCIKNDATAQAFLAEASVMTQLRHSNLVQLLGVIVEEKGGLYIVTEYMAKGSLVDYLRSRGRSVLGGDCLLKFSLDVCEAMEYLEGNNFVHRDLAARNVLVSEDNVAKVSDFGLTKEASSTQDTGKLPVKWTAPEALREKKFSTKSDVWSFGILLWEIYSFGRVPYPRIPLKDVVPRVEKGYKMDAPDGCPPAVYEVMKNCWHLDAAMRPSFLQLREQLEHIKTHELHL
# T12 sequence (P53778 whole entry): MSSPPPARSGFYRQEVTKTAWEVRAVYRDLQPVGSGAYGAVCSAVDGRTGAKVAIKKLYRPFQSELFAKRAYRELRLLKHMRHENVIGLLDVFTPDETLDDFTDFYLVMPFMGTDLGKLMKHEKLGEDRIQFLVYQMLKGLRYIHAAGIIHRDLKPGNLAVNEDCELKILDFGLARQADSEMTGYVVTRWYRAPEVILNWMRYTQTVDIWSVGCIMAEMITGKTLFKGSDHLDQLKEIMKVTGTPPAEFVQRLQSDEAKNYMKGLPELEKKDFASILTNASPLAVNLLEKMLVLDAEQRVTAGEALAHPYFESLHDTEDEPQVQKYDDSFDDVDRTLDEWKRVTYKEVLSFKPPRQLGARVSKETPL
# Sequence of mouse LCK (P06240 whole entry): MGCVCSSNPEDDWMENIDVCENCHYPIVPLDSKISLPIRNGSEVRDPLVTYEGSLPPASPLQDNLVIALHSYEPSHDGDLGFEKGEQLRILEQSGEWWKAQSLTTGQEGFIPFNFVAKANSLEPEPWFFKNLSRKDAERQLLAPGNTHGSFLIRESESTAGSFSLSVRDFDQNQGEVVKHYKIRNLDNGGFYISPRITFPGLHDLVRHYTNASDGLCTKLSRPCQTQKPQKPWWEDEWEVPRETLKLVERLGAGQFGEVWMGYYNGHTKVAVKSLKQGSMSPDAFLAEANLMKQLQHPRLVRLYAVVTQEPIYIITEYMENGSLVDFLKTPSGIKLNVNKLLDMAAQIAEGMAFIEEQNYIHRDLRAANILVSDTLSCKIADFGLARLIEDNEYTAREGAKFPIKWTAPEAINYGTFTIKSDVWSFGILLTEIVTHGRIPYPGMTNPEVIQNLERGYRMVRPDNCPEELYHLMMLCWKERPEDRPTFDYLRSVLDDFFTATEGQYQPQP
# T4 sequence (P45984 whole entry): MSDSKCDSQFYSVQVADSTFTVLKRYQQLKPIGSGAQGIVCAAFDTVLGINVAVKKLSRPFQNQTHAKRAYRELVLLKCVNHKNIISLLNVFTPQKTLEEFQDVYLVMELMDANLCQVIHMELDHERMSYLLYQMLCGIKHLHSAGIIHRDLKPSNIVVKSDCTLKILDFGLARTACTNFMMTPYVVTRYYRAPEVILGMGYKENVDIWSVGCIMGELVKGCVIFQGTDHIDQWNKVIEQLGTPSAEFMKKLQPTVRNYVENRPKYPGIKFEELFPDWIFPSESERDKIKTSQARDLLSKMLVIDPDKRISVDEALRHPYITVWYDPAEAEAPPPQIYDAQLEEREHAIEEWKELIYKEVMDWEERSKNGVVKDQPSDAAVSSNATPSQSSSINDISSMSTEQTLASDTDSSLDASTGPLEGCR
# T6 sequence (Q13188 whole entry): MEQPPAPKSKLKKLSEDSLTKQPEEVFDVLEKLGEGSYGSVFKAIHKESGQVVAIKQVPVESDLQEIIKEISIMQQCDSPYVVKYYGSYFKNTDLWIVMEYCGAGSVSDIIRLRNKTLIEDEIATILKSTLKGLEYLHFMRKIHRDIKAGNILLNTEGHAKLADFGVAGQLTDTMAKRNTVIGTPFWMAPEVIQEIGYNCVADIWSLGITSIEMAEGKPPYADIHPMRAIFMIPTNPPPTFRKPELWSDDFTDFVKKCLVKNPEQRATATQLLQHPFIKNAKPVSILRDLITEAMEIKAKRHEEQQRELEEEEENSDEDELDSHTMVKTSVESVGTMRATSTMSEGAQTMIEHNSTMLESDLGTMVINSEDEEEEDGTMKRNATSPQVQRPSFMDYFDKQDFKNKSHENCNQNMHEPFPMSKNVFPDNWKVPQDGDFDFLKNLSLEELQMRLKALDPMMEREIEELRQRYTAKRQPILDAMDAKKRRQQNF
structure (smiles),measurement,setting,value
"N#CCCNc1nccc(-c2cn(CC(F)F)nc2-c2cnc3[nH]ccc3c2)n1 [RAFi, PF-04880594]",inhibition at 1 µM,[1],16%
same,inhibition at 1 µM,[2],-2%
same,inhibition at 1 µM,[3],-4%
same,inhibition at 1 µM,[4],11%
same,inhibition at 1 µM,[5],62%
same,inhibition at 1 µM,[6],95%
same,inhibition at 1 µM,[7],20%
same,inhibition at 1 µM,[8],12%
same,inhibition at 1 µM,[9],63%
same,inhibition at 1 µM,[10],73%
same,inhibition at 1 µM,[11],3%
same,inhibition at 1 µM,[12],53%
same,inhibition at 1 µM,[13],64%
same,inhibition at 1 µM,[14],30%
same,inhibition at 1 µM,[15],48%
same,inhibition at 1 µM,[16],22%
same,inhibition at 1 µM,[17],9%
same,inhibition at 1 µM,[18],4%
same,inhibition at 1 µM,[19],34%
same,inhibition at 1 µM,[20],4%
